What was measured:
[1] = test system: skin cancer induced by carcinogenic substances; settings: in vivo, murine model of skin cancer; cited from earlier work
cyclo-oxygenase = settings: cited from earlier work
platelet aggregation = settings: cited from earlier work
[2] = test system: line MCF-7 derived from mammary adenocarcinoma; settings: in vitro; cited from earlier work
[3] = stability of the active agent in culture medium (HPLC quantification); type: physicochemical; settings: for halving time in culture medium: culture medium of ex. 10; for amount still present at the end of the test: culture medium of ex. 10, 72 h
Text: The instrumental conditions are the same as those described above for viniferine. The coefficient of molar extinction of both glucosides is almost the same as the one of the corresponding aglycones, so that they can be added as such after carrying out a correction for molecular weights (Mattivi et al. Isolation, characterization, and evolution in red wine vinification of resveratrol monomers, J. Agric. Food Chem., 1995, 43, 7, 1820-1823).
Zeitschdift fur Lebensmittel-Untersuchung und Forschung, 1993, 196, 522-525. In addition to what is contained in the aforesaid document, it has been verified that the method is suitable for all monomer stilbenes, both free and glucosides, and that the eluted fraction of ethyl acetate can be dried under a light flow of nitrogen, in case it is necessary to carry out the exchange in another solvent and/or to further reduce the limits of quantification.
Said techniques can be used for instance to control the stability of the active agent in culture mediums, and therefore to support in vitro experimental models which are going to be described in the following examples. For instance, the culture for means described in ex.

[4] = test system: line HL60 (human promyelocytic acute leukemia); settings: cited from earlier work
[5] = test system: lymphocytes activated with anti-CD3/CD28; test: cell proliferation (Coulter count) and DNA synthesis (BrdU incorporation); type: cell-based, human
Text: (§1) Mononucleated cells of human peripheral blood (PBMC) deriving from healthy subjects have been obtained by separation on gradient (Ficoll-Hypaque) of cells deriving from buffy coat. Cell replication has been evaluated by a cellular count carried out using a Coulter Counter. DNA synthesis has been measured by the test of incorporation of bromodeoxyuridine (BrdU) evaluated by flow cytometry using a cytometer FACscan (Becton-Dickinson). Mononucleated cells of human peripheral blood (PBMC) have been activated by incubation with anti-CD3+ anti-CD28 and then incubated with different doses of resveratrol (or DMSO as control) as described above. Non-activated cells deriving from the same buffy coat have been used as control.

[6] = test system: lymphocytes activated with anti-CD3/CD28; test: cell mortality of activated lymphocytes; type: cell-based, human
Description: as §1, with “mortality” for “replication”, “in trypan blue and/or” for “carried out using a Coulter Counter. DNA synthesis has been measured by the test of incorporation of bromodeoxyuridine (BrdU) evaluated”, “(Becton-Dickinson), determining the vitality of unfixed cells which have been marked with propydium iodide (PI).” for “(Becton-Dickinson).”

human lymphocytes = test: expression of surface antigens CD16, CD4 and CD95 in lymphocytes; type: cell-based; settings: dose of 5 mcg/ml
Description: (§2) Mononucleated cells of human peripheral blood (PBMC) deriving from healthy subjects have been obtained by separation on gradient (Ficoll-Hypaque) of cells deriving from buffy coat.
PBMC have been resuspended in a concentration of 1×10^6/ml and incubated for different periods of time with various doses of resveratrol. The cells have then been incubated with one or more fluorescent monoclonal antibodies, each being specific for a surface antigen (CD4, CD8, CD16 and CD95), and they have undergone a cytofluorometric analysis using a cytofluorometer FACscan (BD).
(§3) Mononucleated cells of human peripheral blood (PBMC) have been incubated for 18 h with resveratrol in a concentration of 0.625, 1.25, 2.5, 5, 10 and 20 mcg/ml. At the end of the incubation the cells have been tested for their natural cytotoxic activity (NK) against the human erythroleukemic line K 562. […] On the contrary, at doses of 10 and 20 mcg/ml resveratrol induces an inhibition of NK activity.

[7] = test system: CD4+ T cells activated with anti-CD3/CD28; test: cytofluorometric analysis of intracytoplasmatic cytokine levels, CD4+ T cells; type: cell-based, human
Text: as §2
(§4) In vitro production of cytokines induced by activation with monoclonal anti-CD3 antibody carried out by the various T cell underpopulations in PBMC has been evaluated by means of a simultaneous cytofluorometric determination of the intracytoplasmatic cytokine content and of the expression of surface antigens in every single cell. By using said method it has been possible to evaluate the production of cytokines by single cell under-populations without previously physically separating them, and therefore in presence of the interactions in the production of cytokines which take place in physiological systems. The execution of said method is made possible by the use of saponin as reversible permeabilizing agent of cell membrane. In short, PBMC have been resuspended in a concentration of 1×10^6/ml, activated by treatment with anti-CD3 (10 ng/ml) and incubated with various doses of resveratrol. After 3 days of culture at 37° C. in a CO2 incubator, the cells have been treated with anti-CD28 (2 ng/ml) and with resveratrol in the same doses previously used. After further 3 days of treatment, the cells have been incubated with a fluorescent monoclonal antibody specific for a surface antigen (CD4 or CD8), resuspended in a medium with the addition of 0.3% saponin, and marked with an optimal dose of a mixture of anti-cytokine monoclonal antibodies conjugated with various fluorochromes. The samples thus treated have then undergone cytofluorometric analysis using a cytofluorometer FACscan (BD).
Mononucleated cells of human peripheral blood (PBMC) have been activated by incubation with anti-CD3+ anti-CD28 and then incubated with different doses of resveratrol (or DMSO as control) as described above. Non-activated cells deriving from the same buffy coat have been used as control. The percentage of T lymphocytes CD4+ and CD8+ positive for IL2, IL4 and IFN-γ has then been analyzed by means of flow cytofluorometry. […]

[8] = test system: CD8+ T cells activated with anti-CD3/CD28; test: cytofluorometric analysis of intracytoplasmatic cytokine levels, CD8+ T cells; type: cell-based, human
Text: as §2, §4
Mononucleated cells of human peripheral blood (PBMC) have been activated by incubation with anti-CD3+ anti-CD28 and then incubated with different doses of resveratrol (or DMSO as control) as described above. Non-activated cells deriving from the same buffy coat have been used as control. The percentage of T lymphocytes CD4+ and CD8+ positive for IL2, IL4 and IFN-γ has then been analyzed by means of flow cytofluorometry. […] The activity peak varies according to the examined cytokine, and precisely: 1.25-2.5 for IFN-γ (FIG. 1A), 0.625 for IL2 (FIG. 1B) and 2.5 for IL4 (FIG. 1C).

MT-2 cells = test: cytotoxic activity of T lymphocytes (CTL), 51Cr release; type: cell-based, human; settings: 5 days
Description: Mononucleated cells of human peripheral blood (PBMC) deriving from healthy subjects have been obtained by separation on gradient (Ficoll-Hypaque) of cells deriving from buffy coat. […] Mononucleated cells of human peripheral blood (PBMC) have been incubated with resveratrol in a concentration of 0.625, 1.25, 2.5, 5 and 10 mcg/ml in presence of MT-2 cells (line of human T cells deriving from blood of umbilical cord infected with HTLV1) for 5 days at 37° C. At the end of the incubation the cells have been tested for their cytotoxic activity against said MT-2 cells.

[9] = test system: PBMC activated with anti-CD3+ anti-CD28; test: percentage of CD4+ and CD8+ T lymphocytes in activated PBMC; type: cell-based, human
Description: Mononucleated cells of human peripheral blood (PBMC) deriving from healthy subjects have been obtained by separation on gradient (Ficoll-Hypaque) of cells deriving from buffy coat. PBMC have been resuspended in a concentration of 1×10^6/ml and incubated for different periods of time with various doses of resveratrol.

[10] = test system: human erythroleukemic line K 562; test: natural killer (NK) activity of PBMC, 51Cr release; type: cell-based; settings: 18 h incubation
Description: as §2
PBMC in a concentration of 2×10^6 cells/ml have been treated in vitro with different doses of resveratrol for 18 h. At the end of the incubation the cells have been tested for their natural cytotoxic activity (NK) against the human erythroleukemic line K 562. The cytotoxic activity of the effect-producing cells incubated for 4 hours at 37° C. with K562 has been determined using a cytotoxicity standard test based on the release of ^51Cr by target cells.
as §3

[11] = test system: lymphocytes activated with anti-CD3/CD28; test: apoptosis of activated lymphocytes; type: cell-based, human
Text: as §2
PBMC resuspended in a concentration of 1×10^6/ml have been fixed in acetone/methanol 1:4, treated with 100 KU/ml of RNase and marked with propydium iodide (50 mcg/ml). The cells have then been analyzed by means of flow cytofluorometry using a cytometer FACscan.
PBMC resuspended in a concentration of 1×10^6/ml have been fixed in 4% paraformaldehyde, treated with 100 KU/ml of RNase and marked with propydium iodide. The cells have then been analyzed by means of observation with a confocal microscope (LEIKA TCS 4D).
Mononucleated cells of human peripheral blood (PBMC) have been activated by incubation with anti-CD3+ anti-CD28 and then incubated with different doses of resveratrol (or DMSO as control) as described above. Non-activated cells deriving from the same buffy coat have been used as control.

In the case of `Oc1ccc(/C=C/c2cc(O)cc(O)c2)cc1` [trans-resveratrol], the tumor genesis [1] is given as “inhibit tumor genesis”, the cyclo-oxygenase activity (cyclo-oxygenase) is given as “inhibits” and the platelet aggregation (platelet aggregation) is given as “inhibits”. The “growth of MCF-7 cells” value [2] was “inhibit”, the “halving time in culture medium” value [3] was 28 h and the “amount still present at the end of the test” value [3] was “not present as such”. For the same molecule, the “cellular cycle of HL60 cells” value [4] was “induce the stop of the cellular cycle in the transition from stage S to stage G2”, the “apoptosis of HL60 cells” value ([4]; high doses) was “induce apoptosis” and the “expression of CD95L in HL60 cells” value ([4]; high doses) was “regulate the expression of CD95L”.

In the case of `Oc1ccc(C=Cc2cc(O)cc(O)c2)cc1` [resveratrol], the cell proliferation ([5]; dose range of 2.5-10 mcg/ml, FIGS. 3A and 3B) was “dose-dependent inhibition”, the “number of treated cells” value ([5]; doses of 0.625 and 1.25 mcg/ml, FIG. 3A) was “statistically significant increase” and the “ability to synthesize DNA” value ([5]; doses of 0.625 and 1.25 mcg/ml, FIG. 3B) was “statistically significant increase”. For the same molecule, the “mortality of activated cells” value ([6]; dose range of 2.5-10 mcg/ml) was “dose-dependent increase”, the “mortality of activated cells” value ([6]; doses of 0.625 and 1.25 mcg/ml) was “does not have any effect” and the “cells which can co-express CD16 and CD95 (CD16+/CD95+ cells)” value (human lymphocytes) was “significant increase”. For the same molecule, the “percentage of CD4+/CD95+ cells” value (human lymphocytes) was “does not induce any variation”, the “peak of stimulating activity, CD4+ cells positive for IFN-γ” value ([7]; FIG. 2A) was 2.5 µg/mL and the “peak of stimulating activity, CD4+ cells positive for IL2” value ([7]; FIG. 2B) was 1.25 to 2.5 µg/mL. For the same molecule, the “peak of stimulating activity, CD4+ cells positive for IL4” value ([7]; FIG. 2C) was 0.625 µg/mL, the “percentage of CD8+ cells which can synthesize all tested cytokines” value ([8]; dose of 5 and more significantly 10 mcg/ml) was “inhibition” and the “activity peak, CD8+ cells positive for IFN-γ” value ([8]; dose of peak stimulation, FIG. 1A) was 1.25 to 2.5 µg/mL. The “activity peak, CD8+ cells positive for IL2” value ([8]; dose of peak stimulation, FIG. 1B) was 0.625 µg/mL, the “activity peak, CD8+ cells positive for IL4” value ([8]; dose of peak stimulation, FIG. 1C) was 2.5 µg/mL and the “percentage of T cells CD8+ positive for intracellular IFN-γ, IL2 and IL4” value ([8]; dose range 0.625-2.5 mcg/ml, with respect to controls) was “significant increase”. The “cytotoxic activity of T lymphocytes” value (MT-2 cells; dose of 0.625 mcg/ml) was “increase”, the “number of blast cells” value (MT-2 cells; dose of 0.625 mcg/ml) was “increase” and the “cytotoxic activity of T lymphocytes” value (MT-2 cells; dose range of 2.5-10 mcg/ml) was “inhibition”. The “number of blast cells” value (MT-2 cells; dose range of 2.5-10 mcg/ml) was “inhibition”, the “percentage of CD4+ cells” value ([9]; all tested doses) was “does not induce any variation” and the “percentage of activated CD8+ cells” value ([9]; dose range of 2.5-10 mcg/ml) was “dose-dependent decrease”. The “percentage of activated CD8+ cells” value ([9]; lower doses (below 2.5 mcg/ml)) was “does not induce any variation”, the NK activity ([10]; dose range of 0.625-5 mcg/ml) was “statistically significant increase” and the NK activity ([10]; doses of 10 and 20 mcg/ml) was “inhibition”. For the same molecule, the “percentage of apoptotic cells” value ([11]; dose range of 2.5-10 mcg/ml) was “dose-dependent increase” and the “apoptosis of activated cells” value ([11]; doses of 0.625 and 1.25 mcg/ml) was “does not have any effect”.

In the case of `Oc1ccc(/C=C\c2cc(O)cc(O)c2)cc1` [cis-resveratrol], the “halving time in culture medium” value [3] was 38 h and the “amount still present at the end of the test” value [3] was “about 25%”.

Reference: patent US20080070851A1, “METHOD FOR THE EXTRACTION OF […] ACTIVE PRODUCTS FROM SPERMATOPHYTE PLANTS, PRODUCTS THUS OBTAINED AND THEIR USE IN THE MEDICAL FIELD, IN […] AS SUBSTANCES WITH IMMUNOMODULATING ACTIVITY” (Institudo Agrario Di S. Michele All'Adige, priority 2000, published 2008)
